Test results published in ChEMBL document CHEMBL1123731, “Synthesis and antiarrhythmic properties of novel 3-selena-7-azabicyclo[3.3.1]nonanes and derivatives. Single-crystal X-ray diffraction analysis of 7-benzyl-3-selena-7-azabicyclo[3.3.1]nonan-9-one and 7-benzyl-3-selena-7-azabicyclo[3.3.1]nonane hydroperchlorate” (1987).
Values joined by “and” are separate entries in the source; they are usually repeats but may differ in a detail not shown here. Equal entries are not always repeated. Active and inactive are the calls of the source. The rule behind the calls is not given here.

Key:
Canis familiaris [1] = experiment: Tested for mean blood pressure without ventricular tachycardia in dogs at a dose of 6 mg/kg; type: functional, Canis lupus familiaris
Canis familiaris [2] = species on record: Canis familiaris; experiment: Relative effect on abolition of ventricular tachycardia in dogs;abolition of VT; type: functional, organism-based; conditions: Canis lupus familiaris; Cardiac ventricle
Canis familiaris [3] = species on record: Canis familiaris; experiment: Relative effect on exacerbation of ventricular tachycardia in dogs; No exacerbation of VT; type: functional, organism-based; conditions: Canis lupus familiaris; Cardiac ventricle
Canis familiaris [4] = experiment: Tested for Norman sinus rhythm in dogs at a dose of 3 mg/kg; type: functional, Canis lupus familiaris
Canis familiaris [5] = experiment: Relative effect on mean blood pressure in dogs; Slight 8% increase im mean BP; type: functional, organism-based; conditions: Canis lupus familiaris
Canis familiaris [6] = experiment: Tested for Norman sinus rhythm in dogs at a dose of 6 mg/kg; type: functional, Canis lupus familiaris; set-up: unit not given beside the values
Canis familiaris [7] = experiment: Tested for mean blood pressure without ventricular tachycardia in dogs at a dose of 3 mg/kg; type: functional, Canis lupus familiaris
Canis familiaris [8] = species on record: Canis familiaris; experiment: Relative effect on normal sinus rate in dogs;NC =no change in normal sinus rate.; type: functional, organism-based; conditions: Canis lupus familiaris
Canis familiaris [9] = experiment: Tested for mean blood pressure with ventricular tachycardia in dogs at a dose of 3 mg/kg Expt-2; type: functional, Canis lupus familiaris
Canis familiaris [10] = experiment: Tested for mean blood pressure with ventricular tachycardia in dogs at a dose of 6 mg/kg Expt-1; type: functional, Canis lupus familiaris
Canis familiaris [11] = experiment: Tested for Sustained ventricular tachycardia in dogs at a dose of 3 mg/kg Expt-2; type: functional, Canis lupus familiaris, Cardiac ventricle
Canis familiaris [12] = experiment: Tested for Norman sinus rhythm in dogs at a dose of 6 mg/kg Expt-2; type: functional, Canis lupus familiaris
Canis familiaris [13] = experiment: Tested for Sustained ventricular tachycardia in dogs at a dose of 6 mg/kg Expt-1; type: functional, Canis lupus familiaris, Cardiac ventricle
Canis familiaris [14] = species on record: Canis familiaris; experiment: Relative effect on abolition of ventricular tachycardia in dogs; no abolition of VT; type: functional, organism-based; conditions: Canis lupus familiaris; Cardiac ventricle
Canis familiaris [15] = experiment: Tested for mean blood pressure without ventricular tachycardia in dogs at a dose of 3 mg/kg Expt-2; type: functional, Canis lupus familiaris
Canis familiaris [16] = species on record: Canis familiaris; experiment: Relative effect on normal sinus rate in dogs; NC=no change; type: functional, organism-based; conditions: Canis lupus familiaris
Canis familiaris [17] = species on record: Canis familiaris; experiment: Relative effect on slowing of ventricular tachycardia in dogs; slowing of VT; type: functional, organism-based; conditions: Canis lupus familiaris; Cardiac ventricle
Canis familiaris [18] = experiment: Tested for Norman sinus rhythm in dogs at a dose of 3 mg/kg Expt-1; type: functional, Canis lupus familiaris
Canis familiaris [19] = experiment: Tested for Sustained ventricular tachycardia in dogs at a dose of 6 mg/kg Expt-2; type: functional, Canis lupus familiaris, Cardiac ventricle
Canis familiaris [20] = experiment: Tested for mean blood pressure without ventricular tachycardia in dogs at a dose of 3 mg/kg Expt-1; type: functional, Canis lupus familiaris
Canis familiaris [21] = experiment: Tested for mean blood pressure without ventricular tachycardia in dogs at a dose of 6 mg/kg Expt-1; type: functional, Canis lupus familiaris
Canis familiaris [22] = species on record: Canis familiaris; experiment: Relative effect on exacerbation of ventricular tachycardia in dogs; exacerbation of VT; type: functional, organism-based; conditions: Canis lupus familiaris; Cardiac ventricle
Canis familiaris [23] = experiment: Tested for mean blood pressure without ventricular tachycardia in dogs at a dose of 6 mg/kg Expt-2; type: functional, Canis lupus familiaris
Canis familiaris [24] = experiment: Tested for Norman sinus rhythm in dogs at a dose of 3 mg/kg Expt-2; type: functional, Canis lupus familiaris
Canis familiaris [25] = experiment: Tested for mean blood pressure with ventricular tachycardia in dogs at a dose of 6 mg/kg Expt-2; type: functional, Canis lupus familiaris
Canis familiaris [26] = species on record: Canis familiaris; experiment: Relative effect on mean blood pressure in dogs; NC=no change; type: functional, organism-based; conditions: Canis lupus familiaris
Canis familiaris [27] = experiment: Tested for Norman sinus rhythm in dogs at a dose of 6 mg/kg Expt-1; type: functional, Canis lupus familiaris
Canis familiaris [28] = experiment: Tested for Sustained ventricular tachycardia in dogs at a dose of 3 mg/kg Expt-1; type: functional, Canis lupus familiaris, Cardiac ventricle
Canis familiaris [29] = experiment: Tested for mean blood pressure without ventricular tachycardia in dogs at a dose of 3 mg/kg expt-2; type: functional, Canis lupus familiaris
Canis familiaris [30] = experiment: Tested for mean blood pressure without ventricular tachycardia in dogs at a dose of 3 mg/kg expt-1; type: functional, Canis lupus familiaris
Canis familiaris [31] = species on record: Canis familiaris; experiment: Relative effect on mean blood pressure in dogs; moderate increase by 16% in mean BP; type: functional, organism-based; conditions: Canis lupus familiaris
Canis familiaris [32] = species on record: Canis familiaris; experiment: Relative effect on abolition of ventricular tachycardia in dogs; abolition of VT; type: functional, organism-based; conditions: Canis lupus familiaris; Cardiac ventricle
Canis familiaris [33] = species on record: Canis familiaris; experiment: Relative effect on normal sinus rate in dogs;NC=no change; type: functional, organism-based; conditions: Canis lupus familiaris
Canis familiaris [34] = experiment: Tested for mean blood pressure without ventricular tachycardia in dogs at a dose of 6 mg/kg expt-2; type: functional, Canis lupus familiaris
Canis familiaris [35] = experiment: Tested for mean blood pressure without ventricular tachycardia in dogs at a dose of 6 mg/kg expt-3; type: functional, Canis lupus familiaris
Canis familiaris [36] = experiment: Tested for Norman sinus rhythm in dogs at a dose of 3 mg/kg Expt-3; type: functional, Canis lupus familiaris
Canis familiaris [37] = species on record: Canis familiaris; experiment: Relative effect on exacerbation of ventricular tachycardia in dogs; no exacerbation of VT; type: functional, organism-based; conditions: Canis lupus familiaris; Cardiac ventricle
Canis familiaris [38] = experiment: Tested for mean blood pressure without ventricular tachycardia in dogs at a dose of 3 mg/kg expt-3; type: functional, Canis lupus familiaris
Canis familiaris [39] = experiment: Tested for mean blood pressure without ventricular tachycardia in dogs at a dose of 6 mg/kg expt-1; type: functional, Canis lupus familiaris
Canis familiaris [40] = species on record: Canis familiaris; experiment: Relative effect on mean blood pressure in dogs;NC=no change in mean BP; type: functional, organism-based; conditions: Canis lupus familiaris
Canis familiaris [41] = species on record: Canis familiaris; experiment: Relative effect on mean blood pressure in dogs; Moderate change in mean BP; type: functional, organism-based; conditions: Canis lupus familiaris
Canis familiaris [42] = species on record: Canis familiaris; experiment: Relative effect on normal sinus rate in dogs;Slight decrease; type: functional, organism-based; conditions: Canis lupus familiaris
Canis familiaris [43] = species on record: Canis familiaris; experiment: Relative effect on normal sinus rate in dogs;Slight increase; type: functional, organism-based; conditions: Canis lupus familiaris
Canis familiaris [44] = species on record: Canis familiaris; experiment: Relative effect on abolition of ventricular tachycardia in dogs; type: functional, organism-based; conditions: Canis lupus familiaris; Cardiac ventricle
Canis familiaris [45] = experiment: Tested for mean blood pressure with ventricular tachycardia in dogs at a dose of 3 mg/kg expt-2; type: functional, Canis lupus familiaris
Canis familiaris [46] = experiment: Tested for Norman sinus rhythm in dogs at a dose of 6 mg/kg expt-2; type: functional, Canis lupus familiaris
Canis familiaris [47] = experiment: Tested for mean blood pressure with ventricular tachycardia in dogs at a dose of 6 mg/kg expt-2; type: functional, Canis lupus familiaris
Canis familiaris [48] = species on record: Canis familiaris; experiment: Relative effect on mean blood pressure in dogs;NC = no change in mean BP; type: functional, organism-based; conditions: Canis lupus familiaris
Canis familiaris [49] = species on record: Canis familiaris; experiment: Relative effect on slowing of ventricular tachycardia in dogs;slowing of VT present; type: functional, organism-based; conditions: Canis lupus familiaris; Cardiac ventricle
Canis familiaris [50] = experiment: Tested for mean blood pressure with ventricular tachycardia in dogs at a dose of 3 mg/kg expt-1; type: functional, Canis lupus familiaris
Canis familiaris [51] = experiment: Tested for Norman sinus rhythm in dogs at a dose of 6 mg/kg expt-1; type: functional, Canis lupus familiaris
Canis familiaris [52] = experiment: Tested for mean blood pressure with ventricular tachycardia in dogs at a dose of 6 mg/kg expt-1; type: functional, Canis lupus familiaris
Canis familiaris [53] = species on record: Canis familiaris; experiment: Relative effect on exacerbation of ventricular tachycardia in dogs; Exacerbation of VT present; type: functional, organism-based; conditions: Canis lupus familiaris; Cardiac ventricle
Canis familiaris [54] = experiment: Tested for Norman sinus rhythm in dogs at a dose of 3 mg/kg expt-1; type: functional, Canis lupus familiaris
Canis familiaris [55] = experiment: Tested for Norman sinus rhythm in dogs at a dose of 3 mg/kg expt-2; type: functional, Canis lupus familiaris

Compound	Effect (Canis familiaris [8])	MBP (Canis familiaris [9])	Activity (Canis familiaris [11])	NSR (Canis familiaris [12])	Effect (Canis familiaris [14])	MBP (Canis familiaris [15])	Effect (Canis familiaris [17])	NSR (Canis familiaris [18])	Activity (Canis familiaris [19])	MBP (Canis familiaris [20])	MBP (Canis familiaris [21])	Effect (Canis familiaris [22])	MBP (Canis familiaris [23])	NSR (Canis familiaris [24])	MBP (Canis familiaris [25])	NSR (Canis familiaris [27])	MBP (Canis familiaris [29])	MBP (Canis familiaris [30])	MBP (Canis familiaris [34])	MBP (Canis familiaris [39])	other results
c1ccc(CN2CC3C[Se]CC(C3)C2)cc1	No change																				MBP (Canis familiaris [1]): 125; Effect (Canis familiaris [2]): abolition of ventricular tachycardia; Effect (Canis familiaris [3]): No exacerbation; NSR (Canis familiaris [4]): 160; Effect (Canis familiaris [5]): Slight; NSR (Canis familiaris [6]): 160; MBP (Canis familiaris [7]): 126
OC1(O)C2C[Se]CC1CN(Cc1ccccc1)C2		40	300 beats min-1	150	No exacerbation	130	exacerbation of VT	150	255 beats min-1	125	125	exacerbation of VT	130	155	60	155					MBP (Canis familiaris [10]): 70; Activity (Canis familiaris [13]): 320 beats min-1; Effect (Canis familiaris [16]): inactive; Effect (Canis familiaris [26]): inactive; Activity (Canis familiaris [28]): 280 beats min-1
c1ccc(CCN2CC3C[Se]CC(C3)C2)cc1								168						150			85	128	150	125	Effect (Canis familiaris [31]): mod; Effect (Canis familiaris [32]): abolition of ventricular tachycardia; Effect (Canis familiaris [33]): inactive; MBP (Canis familiaris [35]): 85; NSR (Canis familiaris [36]): 155; NSR (Canis familiaris [6]; 6 mg/kg): 165 and 150 and 155; Effect (Canis familiaris [37]): No exacerbation; MBP (Canis familiaris [38]): 150
c1ccc([C@H]2N[C@@H](c3ccccc3)C3C[Se]CC2C3)cc1		30	270 beats min-1	140		82	exacerbation of VT	150	280 beats min-1	125	125	exacerbation of VT	80	150	20	145					Effect (Canis familiaris [40]): No change; Effect (Canis familiaris [41]): mod; Effect (Canis familiaris [42]): Slight; Effect (Canis familiaris [43]): Slight; Effect (Canis familiaris [44]): exacerbation of VT
CCN(CC)CC(=O)Nc1c(C)cccc1C [LIDOCAINE]	inactive				inactive												70	110	72	112	MBP (Canis familiaris [45]): 75; NSR (Canis familiaris [46]): 150; MBP (Canis familiaris [47]): 52; Effect (Canis familiaris [48]): inactive; Effect (Canis familiaris [49]): Active; MBP (Canis familiaris [50]): 40; NSR (Canis familiaris [51]): 160; MBP (Canis familiaris [52]): 40; Effect (Canis familiaris [53]): Active; NSR (Canis familiaris [54]): 165; NSR (Canis familiaris [55]): 150
